Source: patent publication US9050345B2, “Pyrrolotriazines as potassium ion channel inhibitors” (BRISTOL-MYERS SQUIBB COMPANY, priority 2013, dated 2015)

Each compound was assayed against T1, human KV 1.5 (IKur) (Homo sapiens, UniProt P22460) (assay: block of IKur current in patch clamped L-929 cells expressing human Kv1.5). Settings: 0.3 μM; patch clamped mammalian L-929 cells stably expressing human Kv1.5.
T1 construct: expressed in transfected cells
Format: cell-based

T1 sequence (P22460 whole entry): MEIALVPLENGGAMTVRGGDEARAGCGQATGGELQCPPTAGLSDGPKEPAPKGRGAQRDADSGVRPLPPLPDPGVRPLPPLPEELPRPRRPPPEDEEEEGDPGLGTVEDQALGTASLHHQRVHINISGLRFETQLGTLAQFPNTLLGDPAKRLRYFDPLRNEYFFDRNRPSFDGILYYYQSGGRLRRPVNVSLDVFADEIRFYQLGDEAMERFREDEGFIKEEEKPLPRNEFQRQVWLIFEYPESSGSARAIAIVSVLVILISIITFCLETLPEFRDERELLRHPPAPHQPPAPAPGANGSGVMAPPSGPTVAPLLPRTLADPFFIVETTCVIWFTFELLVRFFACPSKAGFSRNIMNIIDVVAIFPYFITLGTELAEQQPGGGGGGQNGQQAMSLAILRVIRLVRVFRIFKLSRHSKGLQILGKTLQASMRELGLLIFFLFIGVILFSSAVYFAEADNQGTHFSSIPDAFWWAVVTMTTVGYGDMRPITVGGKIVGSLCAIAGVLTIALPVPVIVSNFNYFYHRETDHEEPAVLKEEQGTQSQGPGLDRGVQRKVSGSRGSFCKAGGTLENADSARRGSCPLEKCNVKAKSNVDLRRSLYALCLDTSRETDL

| Structure (SMILES) | KV1_5% Inh L929 @0.3 μM |
| --- | --- |
| NS(=O)(=O)c1cncc(-c2nc(NC3CCCc4cccnc43)c3c(-c4ccccc4)ccn3n2)c1 (centres unmarked) [Example 171, 5-(5-phenyl-4-((5,6,7,8-tetrahydroquinolin-8-yl)amino)pyrrolo[2,1-f] [1,2,4]triazin-2-yl)pyridine-3-sulfonamide] | 97.64% |

Same assay, conditions: L929, 0.3 μM; patch clamped mammalian L-929 cells stably expressing human Kv1.5; read-out: KV1_5% Inh L929 @0.3 μM

| Structure (SMILES) | inhibition at 0.3 µM |
| --- | --- |
| N#Cc1ccccc1CNc1nc(-c2cncc(S(N)(=O)=O)c2)nn2ccc(-c3ccccc3)c12 [Example 168, 5-(4-((2-cyanobenzyl)amino)-5-phenylpyrrolo [2,1-f][1,2,4]triazin-2-yl)pyridine-3-sulfonamide] | 86.8% |
| NC(=O)c1ccccc1CNc1nc(-c2cncc(S(N)(=O)=O)c2)nn2ccc(-c3ccccc3)c12 [Example 169, 2-(((5-phenyl-2-(5-sulfamoylpyridin-3-yl)pyrrolo[2,1-f][1,2,4]triazin-4-yl)amino)methyl) benzamide] | 62.2% |
| NS(=O)(=O)c1cncc(-c2nc(NC3CCCc4cccnc43)c3c(-c4ccccc4)ccn3n2)c1 (centres unmarked) [Example 170, 5-(5-phenyl-4-((5,6,7,8-tetrahydroquinolin-8-yl)amino)pyrrolo[2,1-f] [1,2,4]triazin-2-yl)pyridine-3-sulfonamide] | 96.4% |
| NS(=O)(=O)c1cncc(-c2nc(NCc3nc4ccccc4s3)c3c(-c4ccccc4)ccn3n2)c1 [Example 172, 5-(4-((benzo[d]thiazol-2-ylmethyl)amino)-5-phenylpyrrolo [2,1-f][1,2,4]triazin-2-yl)pyridine-3-sulfonamide] | 84.3% |
| NS(=O)(=O)c1cncc(-c2nc(NCc3ncccc3F)c3c(-c4ccccc4F)ccn3n2)c1 [Example 173, 5-(5-(2-fluorophenyl)-4-(((3-fluoropyridin-2-yl)methyl)amino)pyrrolo [2,1-f][1,2,4]triazin-2-yl)pyridine-3-sulfonamide] | 98.7% |
| Cc1csc(CNc2nc(-c3cncc(S(N)(=O)=O)c3)nn3ccc(-c4ccccc4)c23)n1 [Example 174, 5-(4-(((4-methylthiazol-2-yl)methyl)amino)-5-phenylpyrrolo [2,1-f][1,2,4]triazin-2-yl)pyridine-3-sulfonamide] | 97.2% |
| COc1ncc(-c2nc(NCc3nc(C)cs3)c3c(-c4ccccc4)ccn3n2)cc1S(N)(=O)=O [Example 175, 2-methoxy-5-(4-(((4-methylthiazol-2-yl)methyl)amino)-5-phenylpyrrolo [2,1-f][1,2,4]triazin-2-yl)pyridine-3-sulfonamide] | 97.1% |
| Cc1cc(CNc2nc(-c3cncc(S(N)(=O)=O)c3)nn3ccc(-c4ccccc4)c23)no1 [Example 176, 5-(4-(((5-methylisoxazol-3-yl)methyl)amino)-5-phenylpyrrolo [2,1-f][1,2,4]triazin-2-yl)pyridine-3-sulfonamide] | 96% |
| CCOC(=O)CC(=O)Nc1cncc(-c2nc(NCc3cnccn3)c3c(-c4ccccc4)ccn3n2)c1 [Example 177, ethyl 3-oxo-3-((5-(5-phenyl-4-((pyrazin-2-ylmethyl)amino)pyrrolo [2,1-f][1,2,4]triazin-2-yl)pyridin-3-yl)amino) propanoate] | 96.7% |
| Nc1ccccc1CNc1nc(-c2cncc(S(N)(=O)=O)c2)nn2ccc(-c3ccccc3)c12 [Example 178, 5-(4-((2-aminobenzyl)amino)-5-phenylpyrrolo [2,1-f][1,2,4]triazin-2-yl)pyridine-3-sulfonamide] | 99.2% |
| CS(=O)(=O)Nc1ccccc1CNc1nc(-c2cncc(S(N)(=O)=O)c2)nn2ccc(-c3ccccc3)c12 [Example 179, 5-(4-((2-(methylsulfonamido)benzyl)amino)-5-phenylpyrrolo [2,1-f][1,2,4]triazin-2-yl)pyridine-3-sulfonamide] | 90.1% |
| CC(=O)Nc1ccccc1CNc1nc(-c2cncc(S(N)(=O)=O)c2)nn2ccc(-c3ccccc3)c12 [Example 180, N-(2-(((5-phenyl-2-(5-sulfamoylpyridin-3-yl)pyrrolo[2,1-f][1,2,4]triazin-4-yl)amino)methyl)phenyl)acetamide] | 36.9% |
| COC(=O)Nc1ccccc1CNc1nc(-c2cncc(S(N)(=O)=O)c2)nn2ccc(-c3ccccc3)c12 [Example 181, methyl (2-(((5-phenyl-2-(5-sulfamoylpyridin-3-yl)pyrrolo[2,1-f][1,2,4]triazin-4-yl)amino)methyl)phenyl)carbamate] | 96% |
| NS(=O)(=O)c1cncc(-c2nc(NCc3ccccn3)c3c(-c4ccccc4)ccn3n2)c1C(F)F [Example 182, 4-(difluoromethyl)-5-(5-phenyl-4-((pyridin-2-ylmethyl)amino)pyrrolo [2,1-f][1,2,4]triazin-2-yl)pyridine-3-sulfonamide] | 93.7% |
| NS(=O)(=O)c1ccc(-c2nc(NCc3ccccn3)c3c(-c4ccccc4)ccn3n2)cn1 [Example 183, 5-(5-phenyl-4-((pyridin-2-ylmethyl)amino)pyrrolo[2,1-f][1,2,4]triazin-2-yl)pyridine-2-sulfonamide] | 97.8% |
| N#Cc1ccccc1-c1ccn2nc(-c3cncc(S(N)(=O)=O)c3)nc(NCc3ccccn3)c12 [Example 184, 5-(5-(2-cyanophenyl)-4-((pyridin-2-ylmethyl)amino)pyrrolo [2,1-f][1,2,4]triazin-2-yl)pyridine-3-sulfonamide] | 80.9% |
